Data from patent US10918640B2, “Azetidine derivatives” (Vernalis (R&D) Ltd., priority 2008, dated 2021).

Test system: carrageenan-induced thermal hypersensitivity
Experiment: Rat carrageenan induced thermal hyperalgesia model of inflammatory pain
Format: in vivo
Description: Rat Carrageenan Induced Thermal Hyperalgesia Model of Inflammatory Pain.
Male Wistar rats were assessed for thermal pain sensitivity by applying a focused light beam onto the hind paws and recording the time to paw withdrawal, before and after local intraplantar administration of carrageenan. After 3 h. thermal pain sensitivity was reassessed in treated and untreated hind paws prior to dosing with test compound or vehicle. Indomethacin was administered as a positive control.
Male Sprague Dawley rats were tail-marked, and acclimatized to the plantar boxes on 3 separate occasions (6, 5 and 1 day prior to the test day) for at least 5 min on each occasion. […] The latency to withdraw both left and right hindpaws from the heat source was determined on 2 occasions (3 min apart). The mean across the 2 challenges was recorded as the baseline for each animal. Rats 18 and 30 were not used in the study as they had very high baseline readings, and they were replaced by 61 and 63. […]
For example, the compound of Example 13 above was tested as follows: Rats were dosed with intraplantar carrageenan at t=0; the compound of Example 13 (1, 3 & 10 mg/kg po) or vehicle (5% EtOH: 95% (1% methylcellulose in water) at t=2 h; indomethacin (10 mg/kg ip) or vehicle at t=2.5 h and thermal sensitivity was measured at t=3 h. Thus all rats received both oral and ip dosing.

## O=C(Nc1cccnn1)N1CC(Oc2ccc(-c3ccccc3)cn2)C1 [Example 13, 3-(5-Phenyl-pyridin-2-yloxy)-azetidine-1-carboxylic acid pyridazin-3-ylamide]
1, 3, 10 mg/kg p.o., rat
  pain sensitivity relative to normal levels: did not reduce pain sensitivity to below normal levels
At 3 and 10 mg/kg doses p.o., one way ANOVA followed by Newman-Keuls post hoc tests
  statistical significance of inhibition cf. vehicle/carrageenan group: reached statistical significance
